Structure (SMILES) | melting point
N#CN(CCN1CCC(C(=O)c2ccc(F)cc2)CC1)C(=N)NCCN1CCC(C(=O)c2ccc(F)cc2)CC1 | 152 to 156 °C
CCOc1cccc(-c2ccc(C3CCN(S(=O)(=O)C(C)(C)C(=O)O)CC3)cc2C)n1 | 178 to 179 °C
O=Cc1c(Cl)cc(OCCO)cc1Cl | 83 to 85 °C
CC(=O)OC1CC(CO)OC1n1ccc(=O)[nH]c1=O (stereo not given) | 148 to 149 °C
O=c1ccc2ccccc2n1O | 188 °C
CC(C)c1cccc(C(C)C)c1NC(=O)Nc1ccccc1CCc1cc(C(C)(C)C)c(O)c(C(C)(C)C)c1 | 209 to 210 °C
ClCCCCOc1ccccc1/C=C/c1nc2ccccc2s1 | 98 to 100 °C
O=C1NC(=O)C(c2c3n(c4ccccc24)CCC(CO)C3)=C1c1coc2ccccc12 (stereo not given) | 246 to 248 °C
CCOC(=O)c1cnc(-c2ccccc2)nc1-c1ccc([N+](=O)[O-])cc1 | 138 to 140 °C
NC(=O)c1nc(-c2cccc(O)c2)nc2c1[nH]c(=O)n2-c1ccccc1Cl | 360 to 364 °C
Cn1c(=O)oc2cc3c(cc21)OCC31C(=O)N(C(c2ccccc2)c2ccccc2)c2ccccc21 (stereo not given) | 228 to 229 °C
CC(C)c1nc(CCO)n(Cc2ccc([N+](=O)[O-])cc2)c1Sc1cc(Cl)cc(Cl)c1 | 142 to 145 °C
CCCCCCNC(=O)Nc1ccccc1C(=O)NCC1CCN(C(c2ccccc2)c2ccccc2)CC1 | 168 to 169 °C
CN(c1cccc2cc(-c3nccs3)[nH]c12)S(=O)(=O)c1ccsc1C(=O)N1CCOCC1 | 190 °C
O=C(O)Cc1c(C(=O)c2ccc3c(c2)OCCO3)[nH]c2ccc(C(F)(F)F)cc12 | > 250 °C
CC1(C)Oc2ccc(S(=O)(=O)c3ccccc3)cc2[C@@H](O)[C@@H]1Br (relative stereo) | 103 to 105 °C
COc1cc(Nc2c(C#N)cnc3cc(OCCCN4CCS(=O)(=O)CC4)c(OC)cc23)c(Cl)cc1Cl | 118 to 120 °C
CC(C)(C)OC(=O)N(OCc1ccccc1)C(=O)OC(C)(C)C | 77.5 to 78.5 °C
CNC1=CC(=O)C(Nc2ncnc3cc(OC)c(OC)cc23)=CC1=O | 283 to 285 °C
CC(C)(C)c1cc(SCCc2nncs2)cc(C(C)(C)C)c1O | 118 to 120 °C
CCN(CC1OCCO1)c1c([N+](=O)[O-])cc(S(C)(=O)=O)cc1[N+](=O)[O-] | 125 to 127 °C
CC(=O)n1nc(-c2ccncc2)nc1-c1ccncc1 | 156 to 158 °C
Cn1c2ccccc2c2c3c(c4c5ccccc5n(CCCCN)c4c21)C(=O)NC3=O | 177 to 181 °C
CC(C)OC(=O)C=Cc1cc(-n2c(=O)cc(C(F)(F)F)n(C)c2=O)c(F)cc1Cl | 137 to 139 °C

Structure (SMILES) | melting point
CN1CCN(c2cccc(-n3cnc4cc(C=O)ccc43)c2)CC1 | 199 to 201 °C
CSc1c(F)cc(CC(=O)c2ccccc2)cc1F | 71.8 to 71.9 °C
CCCc1nc2c(C(F)(F)F)cccc2c(O)c1C(=O)O | 148 °C
COc1ccc(S(=O)(=O)Nc2ccc(-c3ccccc3)cc2)cc1OC | 171 to 173 °C
CC(C)(C)C(=O)C(C(Sc1ccccc1)c1ccc(F)cc1)n1cncn1 (stereo not given) | 175 °C
Nc1ncc(Cc2ccc3c(c2)OCO3)c(N)n1 | 248 to 255 °C
NC(=NOC1CCCCO1)Nc1c(Cl)cccc1Cl (stereo not given) | 178 to 180 °C
CS(=O)(=O)OCC(O)(CC(Cl)(Cl)Cl)c1ccccc1 (stereo not given) | 128 to 130 °C
OCCNC(=S)C1(c2ccccn2)CCCS1 (stereo not given) | 132 °C
CC(C)c1ccc2c(c1)C(N1CCN(CCCO)CC1)Cc1ccc(F)cc1S2 (stereo not given) | 106 to 108 °C
CC[C@H]1CN(c2c(F)cc3c(=O)c(C(=O)O)cn([C@@H]4C[C@@H]4F)c3c2OC)C[C@H]1N | 217 to 219 °C
Cc1nc2n(c(=O)c1CCN1CCC(c3c[nH]c4ccccc34)CC1)CCCS2 | 227 °C
O=C(NCCCn1ncnn1)c1ccccc1NS(=O)(=O)c1cccc(C(F)(F)F)c1 | 67 to 69 °C
O=S1NC(Cc2ccc3c(c2)OCO3)=NO1 (stereo not given) | 132 to 133 °C
CC(C)c1nc(-c2ccc(-c3cnc4[nH]c(=O)n(CC5CCOCC5)c4n3)cc2)n[nH]1 | 305 to 308 °C
C[C@]1(COc2ccc3nc(N4CCC(=Cc5ccc(OC(F)(F)F)cc5)CC4)ccc3c2)Cn2cc([N+](=O)[O-])nc2O1 | 194 to 196 °C
O=C1CN=C(c2ccccc2)c2cc(C(c3ccc(Cl)cc3)n3ccnc3)ccc2N1 (stereo not given) | 144 °C
OCCOCCNCc1ccc(-c2cc3ncnc(Nc4ccc5[nH]ccc5c4)c3s2)cc1 | 111 to 119 °C
COc1cc(C=C(C)[N+](=O)[O-])ccc1OCC(=O)O | 116 to 117 °C
OCC(O)COc1noc2ccc(Cl)cc12 (stereo not given) | 61 to 62 °C
CCOc1ccc2c(c1)N=C(c1cccc(-c3ccc(C)nc3)c1)CC(=O)N2 | 173 °C
NC(CC1c2ccccc2Sc2ccccc21)(C(=O)O)c1ccc(C(=O)O)cc1 (stereo not given) | 251 °C
CC1(C)CCC(C)(C)c2cc(CC#Cc3ccc(C(=O)Nc4ccc(O)cc4)cc3)ccc21 | 159 to 160 °C
NC(=O)Nc1cccc2c1C(=O)c1c-2n[nH]c1-c1ccsc1 | > 280 °C

Structure (SMILES) | melting point
O=C(c1ccccc1F)c1cccc2c1N(C(=O)CBr)CC2 | 136 °C
O=C(O)Cc1ccc(N2C(=O)C3CCCCC3C2=O)cc1 (stereo not given) | 219 to 221 °C
CCOc1cc(CCl)nc(OCC)n1 | 38 to 39 °C
CN(C)C(=O)[C@@H]1C[C@H]1C(=O)c1c[nH]c2ccc(F)cc12 (relative stereo) | 239 to 241 °C
CCCN(CCC)C(=O)COc1nc(-c2ccccc2)nc(C)c1Cl | 90 to 91 °C
CC(C)(C)C(=O)C(Oc1ccccc1)C(=O)Nc1ccc(Cl)cc1Cl (stereo not given) | 112 to 114 °C
CC(=O)OC1CC2(C)C(Sc3ccccc3)=CCC2C2CCC3=CC(=O)C=CC3(C)C12F (stereo not given) | 229 to 231 °C
COC(=O)c1ccc(S(C)(=O)=O)c(OS(=O)(=O)C(F)(F)F)c1Cl | 69 °C
Cn1c(-c2ccc(OCC3CO3)cc2)nnc1C(F)(F)F (stereo not given) | 104 to 106 °C
O=C(O)CC1c2cc(C(F)(F)F)ccc2C(=O)N1CC(F)(F)F (racemic) | 202 to 204 °C
Oc1cncc(Cl)c1CCCOc1cccnc1Oc1cccc(Cl)c1 | 95 to 96 °C
O=C(c1ccc(Cl)cc1)c1cc(-c2ccccc2)c(N2CCOCC2)s1 | 187 to 188 °C
O=C1CCC(N2Cc3cc(CNC(=O)c4ccccc4C(F)(F)F)ccc3C2=O)C(=O)N1 (stereo not given) | 303 to 305 °C
Cn1cc(CO)c(=O)c2cccc(Cl)c21 | 182 to 184 °C
CCNc1cc(C(C)=O)ccn1 | 55 to 57 °C
COc1cc(OC)cc(N2CCN(C(=O)Nc3cc(C(C)OC(=O)CCC(=O)O)c(C)nc3OC)CC2)c1 (stereo not given) | 158 to 160 °C
COc1ccccc1[C@H](c1cccc2ccccc12)[C@@](C)(C#N)C(=O)N1CCN(c2ccc(Cl)cc2)CC1 | 178 to 180 °C
COCOC1CCC2(C)C(=CCC3C2CCC2(C)C(COCc4ccccc4)CCC32)C1 (stereo not given) | 75 to 76 °C
CC(=O)OC1CSC(Oc2cc(-c3ccncc3)cnc2F)C(OC(C)=O)C1OC(C)=O (stereo not given) | 143 to 144 °C
N#Cc1cc(/C=C/C(=O)Nc2ccc(Br)cc2)ccc1F | 205 to 210 °C
O=CNCCOc1cccc2c1c1ccccc1n2Cc1ccccc1 | 161 to 162 °C
O=C1CCC(c2ccccc2)(c2ccccc2)[C@@H]2CN(C(=O)Cc3ccc(Cl)cc3)C[C@H]12 (racemic) | 213 °C
COc1cc(S(C)(=O)=O)ccc1-n1nc(C(F)(F)F)cc1-c1ccc(-c2ccco2)cc1 | 200 °C
CCOC(=O)c1cc2c(OC=O)c(OC[C@H]3CO3)ccc2[nH]1 | 123 to 125 °C

Structure (SMILES) | melting point
CCc1ncnc(NC2CCc3cc(OC)ccc3C2)c1Cl (stereo not given) | 70 to 71 °C
Oc1cccc(-c2n[nH]c3ncnc(Nc4cccc(Cl)c4)c23)c1 | 118 to 119 °C
COc1ccc(CS(=O)(=O)/C(=C/c2ccc(Br)cc2)C(=O)c2ccc(Br)cc2)cc1 | 146 to 150 °C
CCCCOc1ccc(-n2cc(C(=O)OCC)cn2)cc1C#N | 132 °C
COc1cc(Nc2nccc(Nc3ccc(CC(=O)OCc4ccccc4)cc3)n2)cc(OC)c1OC | 149 °C
COc1cc(C)nc(-n2cccn2)n1 | 52.5 to 53 °C
COc1ccc(CCCO)cc1OCc1coc(/C=C/c2ccccc2)n1 | 126 to 128 °C
CCCC12CCC3C4CCC(=O)C=C4CCC3C1CCC2OC(=O)CCc1ccccc1 (stereo not given) | 104 to 108 °C
Cc1ccc(C(N)=S)c(N)c1 | 172 to 174 °C
CC1(C)C2C(=O)OC(C(Br)(Br)Br)C21 (stereo not given) | 101 to 103 °C
O=C1NC(=O)C(Cc2ccc(OCCON=Cc3cccc(-c4ccccc4)c3)cc2)S1 (stereo not given) | 128 °C
CCNC(=O)N(O)CC#Cc1cccc(C2=N[C@H](c3ccccc3)CO2)c1 | 141 to 143 °C
COc1ccc(C2=CCOCC2)cc1[N+](=O)[O-] | 117 to 120 °C
CC(C)(C)[Si](C)(C)Oc1ccc2c(c1)CCc1c-2c(=O)oc2cc(O[Si](C)(C)C(C)(C)C)ccc12 | 145 to 147 °C
CC(C)N(C(=O)CN1C(=O)C(NC(=O)Nc2ccccc2)C(=O)N(c2ccccc2)c2ccccc21)c1ccccc1 (stereo not given) | 230 to 235 °C
Cc1nc(NC(=O)c2cnn3c(C(F)(F)F)cc(-c4ccc(Cl)c(Cl)c4)nc23)sc1S(=O)(=O)NC(C)(C)CO | 265 °C
CC(C)Oc1ccc(-n2c(C(=O)NC(C)(C)C(=O)O)c(Cl)c3cc(Oc4ccc(C(F)(F)F)cc4)ccc32)cc1 | 187 to 188 °C
CCOC(=O)C(=C1SC(=S)N(CC(=O)O)C1=O)c1csc(NC(=O)c2ccccc2)n1 | 278 to 281 °C
CCCN(CCC)CCCOc1ccc(-c2noc(-c3ccccc3)n2)cc1 | 55 to 57 °C
Cc1[nH]c(C)c(-c2ccc(Oc3ccc(C(F)(F)F)cc3)cc2)c(=O)c1Br | 304 to 305 °C
COCCOc1ccc(/C=C/C(=O)O)c(OCC2CCCO2)c1 (stereo not given) | 106 to 108 °C
O=C(O)c1cccc2c1NCCC2C(=O)O (stereo not given) | 215 to 216 °C
O=C1CC2(CCCC2)CC(=O)N1CCCCN(c1ccncc1)n1c2ccccc2c2ccccc21 | 90 to 92 °C

— a melting point compilation (Tetko et al.; mined from patent text by program, amines drawn as free bases though some values may be those of a salt)
